Test results as given in BindingDB's records for doi:10.7270/Q2BG2MFK (Nmmlsc, 2010).

These compounds were tested against T1, Regulator of G-protein signaling 19 (Homo sapiens, UniProt P49795) (assay: analogs regulating RGS19 interaction with Gαo – biochemical, SAR compounds, multiplexed bead flow cytometry, SAR follow-up (AID 2311)). Conditions: not given.
T1 sequence (P49795 whole entry): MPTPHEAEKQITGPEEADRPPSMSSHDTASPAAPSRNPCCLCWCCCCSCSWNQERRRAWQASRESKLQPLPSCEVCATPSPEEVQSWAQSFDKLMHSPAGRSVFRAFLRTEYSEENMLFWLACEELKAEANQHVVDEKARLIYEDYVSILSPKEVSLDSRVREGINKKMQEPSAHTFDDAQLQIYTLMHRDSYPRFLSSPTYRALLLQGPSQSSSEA

EC50 [nM]	SMILES
27	CN1CCN(C2=C(Cl)C(=O)C(c3cnc(N4CCCCC4)s3)=C(Cl)C2=O)CC1
378	CCN=c1scc(C)n1N=Cc1ccc(O)c(O)c1O
> 30000	CCN(CC)S(=O)(=O)c1cccc(C(=O)NN=Cc2ccc(O)c(O)c2O)c1
56	Cc1[nH]n(-c2ccccc2)c(=S)c1C=NCCCN=Cc1c(C)[nH]n(-c2ccccc2)c1=S
590	Cc1cccc(N2CCN(C(=O)COc3nsc4nc(C)cc(C)c34)CC2C)c1 (stereo unspecified)
> 30000	O=c1c2ccccc2sn1-c1ccc(S(=O)(=O)N2CCCC2)cc1 [2-(4-pyrrolidin-1-ylsulfonylphenyl)-1,2-benzothiazol-3-one]
100	Cc1cccc(N2CCN(C(=O)Cn3sc4nc(C)cc(C)c4c3=O)CC2C)c1 (stereo unspecified) [2-[2-keto-2-[3-methyl-4-(m-tolyl)piperazino]ethyl]-4,6-dimethyl-isothiazolo[5,4-b]pyridin-3-one]
> 30000	O=c1c2ccccc2sn1-c1ccccc1 [2-phenyl-1,2-benzothiazol-3-one]
> 30000	CC(NC(=O)c1sc2cc([N+](=O)[O-])ccc2c1Cl)C(C)(C)C (stereo unspecified) [3-chloranyl-N-(3,3-dimethylbutan-2-yl)-6-nitro-1-benzothiophene-2-carboxamide]
488	O=C(NCCCN1CCOCC1)c1sc2cc([N+](=O)[O-])ccc2c1Cl [3-chloranyl-N-(3-morpholin-4-ylpropyl)-6-nitro-1-benzothiophene-2-carboxamide]
> 30000	COC(=O)CCC(=O)Nc1sc(C)c(C)c1C(N)=O [4-[(3-carbamoyl-4,5-dimethyl-2-thienyl)amino]-4-keto-butyric acid methyl ester]
> 30000	CCN(CC)S(=O)(=O)c1cccc(-c2n[nH]c(=S)n2N=Cc2ccc(C(=O)OC)cc2)c1 [4-[(E)-[3-[3-(diethylsulfamoyl)phenyl]-5-thioxo-1H-1,2,4-triazol-4-yl]iminomethyl]benzoic acid methyl ester]
109	NS(=O)(=O)c1ccc(N=NCc2ccc(O)c(O)c2O)c([N+](=O)[O-])c1 [4-[[(E)-(2,3-dihydroxy-4-oxo-1-cyclohexa-2,5-dienylidene)methyl]hydrazo]-3-nitrobenzenesulfonamide]
155	CCOC(=O)c1sc(NC(=O)CSc2nnc(Cc3ccccc3)o2)c(C#N)c1C [4-cyano-3-methyl-5-[[1-oxo-2-[[5-(phenylmethyl)-1,3,4-oxadiazol-2-yl]thio]ethyl]amino]-2-thiophenecarboxylic acid ethyl ester]
209	CN=c1scc(C)n1N=Cc1ccc(O)c(O)c1O [(4E)-2,3-dihydroxy-4-[[(4-methyl-2-methylimino-1,3-thiazol-3-yl)amino]methylidene]cyclohexa-2,5-dien-1-one]
> 30000	Cc1[nH]n(-c2ccccc2)c(=S)c1/C=N/c1cccc([N+](=O)[O-])c1 [(4E)-5-methyl-4-[(3-nitroanilino)methylene]-2-phenyl-2-pyrazoline-3-thione]
16	CC(=O)OCCCNc1cc(Sc2nc3ccccc3s2)c2nonc2c1[N+](=O)[O-] [MLS000521052]
115	Cc1cc(Cl)ccc1/N=c1/ssnc1Cl [MLS000539990]
82	O=C1C(Cl)=C(N2CCCCC2)C(=O)C(Cl)=C1c1cnc(N2CCCCC2)s1 [MLS000550549]
1240	CCC(=O)NC(c1ccc(C)cc1)c1cc([N+](=O)[O-])c2cccnc2c1O (stereo unspecified) [MLS000553854]
169	COc1ccc(C2=CC(=O)C=CC2=O)cc1 [MLS001029846]
> 30000	O=C(COc1ccccc1C(=O)NN=Cc1ccc(O)c(O)c1)NN=Cc1ccc(O)c(O)c1 [N''-[(Z)-(3-hydroxy-4-oxo-1-cyclohexa-2,5-dienylidene)methyl]-2-[2-[[(Z)-(3-hydroxy-4-oxo-1-cyclohexa-2,5-dienylidene)methyl]hydrazo]-2-oxoethoxy]benzohydrazide]
245	CC1(C)OC(=O)C(=Cc2ccc(-c3ccc(S(N)(=O)=O)cc3)o2)C(=O)O1 [SMR000273939]
794	O=C(Cc1csc(N2CCOCC2)n1)NN=Cc1ccc(O)c(O)c1O [SMR000369439]
> 30000	Nc1c(C(=O)NCC2CCCO2)sc2nc3c(c(-c4ccco4)c12)CC/C3=C/c1ccco1 (stereo unspecified) [UNM-0000305796]

Same assay, conditions: inactive by the depositor's call

EC50 [nM]	SMILES
4690	CCOc1ccccc1-c1c2cc(O)c(=O)cc-2oc2cc(O)c(O)cc12 [MLS000578271]
